This note sets out measurements from patent US20130178453A1, “Cannabinoid Agonists” (priority 2010, published 2013).

Read-outs that look alike come from different tables or passages of the source. Where only a bound is given, the exact number is not on record here.

Assay [1] has as its target T1, hCB1 (Homo sapiens, UniProt P21554). The experiment in a line: hCB1 cAMP agonist assay (HEK-293 cells). In kind it is cell-based.
For assay [2], the target named is T1, hCB1. The experiment in a line: hCB1 radioligand binding assay ([3H]-CP 55,940 displacement). Particulars: hCB1 IC50 (CP displ, nM, HEK), HEK membranes. An excerpt:
(§1) cDNA expression clones for human CB 1 (hCB1, Genbank Accession No. AY225225) and human CB2 (hCB2, Genbank Accession No. AY242132) expressed in vector pcDNA3.1+ were purchased from UMR cDNA Resource Center, Rolla, Mo. (Clone ID CNR01L000 for hCB1; CNR0200000 for hCB2).
Stable, HEK-293-derived cell lines that recombinantly express hCB1 or hCB2 were established. In brief, the clone hCB1 (CNR1L) or hCB2 (CNR2) was transfected into human embryonic kidney cells (HEK-293) using Lipofectamine 2000 (Gibco, Cat#11668-019) according to the manufacturer's protocol. Transfected clones were isolated by single colony purification and clones were screened for receptor expression using a whole cell, ^3H—CP 55,940 radioligand binding assay. HEK-293 stable cells were maintained in Dulbecco's modified Eagles medium (DMEM) containing 10% fetal bovine serum, 2 mM L-glutamine and 0.5 mg/mL G-418.
(§2) Membranes were isolated from transfected cells as follows. Monolayers of cultured cells were washed twice with phosphate-buffered saline (PBS). Cells were scraped into 20 mM HEPES, pH 7.4, 10 mM EDTA containing complete cocktail protease inhibitors (Roche, Catalog #11 697 498 001), and were homogenized by an electric-powered mechanical probe homogenizer (Omni GLH; probe G7-195S) for 40 seconds at 7000 rpm. Homogenates were centrifuged 10 minutes at 1000×g at 4° C. The supernatant was collected and was centrifuged for 1 hour at 40,000×g. The supernatant was then decanted and the resulting pellet was re-suspended in 20 mM HEPES, pH 7.4, 5 mM MgCl2, 1 mM EDTA, 10% sucrose with complete cocktail protease inhibitors. Protein concentration of membrane suspensions were measured by Bradford Protein Assay using bovine serum albumin as the standard (BioRad catalog #500-0006). Protein concentrations of membrane suspensions were adjusted with the final buffer in the range of 5 to 10 mg/mL and were stored at −80° C. until further use.
Radioligand binding assays were performed by incubating membranes (2-10 μg protein) prepared from HEK-293 cells expressing recombinant human cannabinoid receptors, CB 1 or CB2, at room temperature with 0.5 nM cannabinoid receptor agonist, [^3H]-CP 55,940 (Perkin Elmer, catalog #NET 1051) in 0.2 mL of binding buffer (50 mM Tris-HCl, pH 7.5, 5 mM MgCl2, 2.5 mM EDTA) and 0.1% fatty acid free bovine serum albumin (Sigma Cat. #A0821) for 90 minutes. A rapid filtration technique using Millipore FB filter plates (Catalog #MADVNOB) and filtration apparatus (Millipore system Catalog MAVM0960R) with vacuum aspiration was used to harvest and rinse labeled membranes (8 times with 0.2 mL of chilled binding buffer). The radioactivity bound to the filters was counted with 0.05 mL of liquid scintillant (UltraGold MV, PerkinElmer catalog #6013159) in a scintillation counter (Perkin Elmer Microbeta instrument). Nonspecific binding was determined in the presence of unlabeled 1 μM CP 55,940 (Sigma Aldrich, catalog #C1112). Binding data were analyzed using GraphPad Prism (GraphPad Software, Inc. San Diego, Calif.).

Assay [3] addresses T2, hCB2 (Homo sapiens, UniProt P34972). The experiment in a line: hCB2 GTPγS agonist assay (HEK-293 membranes). In kind it is biochemical. As to the method:
as §1
as §2, with “Cells were scraped into 20 mM HEPES, pH 7.4, 10 mM EDTA containing complete cocktail protease inhibitors (Roche, Catalog #11 697 498 001), and were homogenized by an electric-powered mechanical probe homogenizer (Omni GLH; probe G7-195S) for 40 seconds at 7000 rpm.” left out
^35S GTPγS binding assays were performed by incubating recombinant cell membranes prepared above (5 μg) in the presence of scintillation proximity assay beads (SPA beads, Catalog #RPNQ0252 GE Healthcare, Buckinghamshire, England) in GTPγS binding buffer [50 mM HEPES (pH 7.4), 100 mM NaCl, 5 mM MgCl2, 0.001% saponin (Sigma catalog #S4521)] supplemented with 20 uM GDP (Sigma catalog #G7127) in the presence or absence of test compound. The reaction was carried out in 96-well microplates with 0.1 nM [^35S]GTPγS (specific activity=1250 Ci/mmol; Perkin Elmer catalog #NEG030X250UC) in a final volume of 100 μL. After a 90 min room temperature incubation, the reaction was analyzed using a scintillation counter (Perkin Elmer Microbeta instrument). Binding data were analyzed using GraphPad Prism.

In assay [4] the target is T2, hCB2. The experiment in a line: hCB2 cAMP agonist assay (HEK-293 cells). In kind it is cell-based. How it is done: as §1
cAMP assays were performed in HEK-293 cells stably expressing human CB 1 or CB2 receptors. […] Cells suspensions were centrifuged and the cells were washed once with PBS, were centrifuged again, and the cells were resuspended in HBSS (Hank's Balanced Salt Solution, Cellgro, Cat #21-022-CV) solution containing 10 mM HEPES and 0.1% fatty acid free BSA (Sigma, Cat #A0281). Cell suspensions were prepared at 1,500,000 cells per mL. Stock solutions of test substances (10 mM) in DMSO were diluted to 1 mM using 30% DMSO as diluent. Test substances of solutions (1 mM) were further diluted down to 3× of final assay concentrations in the above HBSS buffer containing 0.1% BSA in the presence of 90 uM forskolin (Sigma Cat#F6886). To perform the assay, 20 μL of cell suspension (1,500,000 cells/mL) were added to each well in 96 well plate and treated with 10 μL test substance solution diluted as described above. Cells and compounds were incubated at 37° C. for 30 minutes. Cells were lysed and cAMP concentration was measured using DiscoveRx-XS+ cAMP assay kit (DiscoveRx Corporation Ltd., Fremont, Calif., USA, Cat #90-0075-03), following the manufacturer's protocol. GraphPad Prism software was used to calculate EC50 values using sigmoidal dose response curve fitting. The maximal amount of cAMP produced by forskolin was defined as 100%.

For assay [5], the target named is T2, hCB2. Put plainly: hCB2 radioligand binding assay ([3H]-CP 55,940 displacement). Particulars: hCB2 IC50 (CP displ, nM, HEK), HEK membranes. As to the method: as §1
as §2, with “Cells were scraped into 20 mM HEPES, pH 7.4, 10 mM EDTA containing complete cocktail protease inhibitors (Roche, Catalog #11 697 498 001), and were homogenized by an electric-powered mechanical probe homogenizer (Omni GLH; probe G7-195S) for 40 seconds at 7000 rpm.” left out
A rapid filtration technique using Millipore FB filter plates (Catalog #MADVNOB) and filtration apparatus (Millipore system Catalog MAVM0960R) with vacuum aspiration was used to harvest and rinse labeled membranes (8 times with 0.2 mL of chilled binding buffer). […] Binding data were analyzed using GraphPad Prism (GraphPad Software, Inc. San Diego, Calif.).

Setting [6] is: GTPγS agonist, HEK membranes, read-out: hCB2 EC50 (GTPyS ag, nM, HEK).
Setting [7] is: cAMP agonist, HEK, 96-well, read-out: hCB2 EC50 (cAMP ag, nM, HEK (96-well)).

T1 sequence (P21554 whole entry): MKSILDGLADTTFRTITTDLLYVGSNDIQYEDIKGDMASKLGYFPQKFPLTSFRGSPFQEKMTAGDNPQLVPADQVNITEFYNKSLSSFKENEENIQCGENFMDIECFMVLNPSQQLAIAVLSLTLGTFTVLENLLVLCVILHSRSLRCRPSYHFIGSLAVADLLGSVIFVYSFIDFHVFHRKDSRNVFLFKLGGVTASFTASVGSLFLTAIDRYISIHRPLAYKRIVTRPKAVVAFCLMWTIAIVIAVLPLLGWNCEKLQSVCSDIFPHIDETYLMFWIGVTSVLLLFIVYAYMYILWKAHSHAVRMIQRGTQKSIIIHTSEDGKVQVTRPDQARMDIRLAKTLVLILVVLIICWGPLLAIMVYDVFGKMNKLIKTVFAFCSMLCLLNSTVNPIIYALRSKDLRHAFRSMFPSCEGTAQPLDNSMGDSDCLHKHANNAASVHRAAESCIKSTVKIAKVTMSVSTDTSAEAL
T2 sequence (P34972 whole entry): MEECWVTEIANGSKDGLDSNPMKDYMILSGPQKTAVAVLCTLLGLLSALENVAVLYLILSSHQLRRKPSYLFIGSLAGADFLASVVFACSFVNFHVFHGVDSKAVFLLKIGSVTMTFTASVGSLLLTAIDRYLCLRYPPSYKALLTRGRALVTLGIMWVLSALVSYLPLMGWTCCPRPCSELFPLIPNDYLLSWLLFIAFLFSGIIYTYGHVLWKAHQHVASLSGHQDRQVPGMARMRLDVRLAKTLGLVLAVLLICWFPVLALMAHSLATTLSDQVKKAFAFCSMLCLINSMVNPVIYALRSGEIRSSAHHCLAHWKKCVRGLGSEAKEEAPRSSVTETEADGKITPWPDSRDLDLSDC

For the compound `CCCn1c(C(=O)c2c(C)n(CCC)c3sccc23)cc2ccccc21` [Compound I-14], in assay [1] (cAMP agonist, HEK, 96-well), the “hCB1 EC50 (cAMP ag, nM, HEK (96-well))” value was “NS (“Not Significant,” which means less than 30% agonist activity when compared to the positive control)”. The IC50 in assay [2] and in assay [5] was 100 to 1000 nM each time. Further, the EC50 in assay [3] and in assay [4] was 100 to 1000 nM throughout.

Turning to `CCn1c(C(=O)c2c(C)n(CC3CCOCC3)c3ccccc23)cc2ccsc21` [Compound I-17], the figures for the half-maximal effective concentration (EC50) in assay [1], in assay [3] and in assay [4] were 100 to 1000 nM, less than 100 nM and less than 100 nM, respectively. For the same compound, the IC50 in assay [2] is 100 to 1000 nM; in assay [5], less than 100 nM.

Consider `CCn1c(C(=O)c2c(C)n(CCCNS(C)(=O)=O)c3ccccc23)cc2ccsc21` [Compound I-19], for which the “hCB1 EC50 (cAMP ag, nM, HEK (96-well))” value in assay [1] (cAMP agonist, HEK, 96-well) is reported as “NS (“Not Significant,” which means less than 30% agonist activity when compared to the positive control)”. Besides, the IC50 in assay [2] was 1000 to 10000 nM; in assay [5], less than 100 nM. Besides, the EC50 in assay [3] (setting [6]) and in assay [4] (setting [7]) was less than 100 nM in each case.

With `C=CCn1cc(C(=O)c2cc3ccsc3n2CC)c2cnccc21` [Compound I-21], the EC50 was in the range of 100 to 1000 nM in assay [1], 100 to 1000 nM in assay [3] and 1000 to 10000 nM in assay [4]. In addition, the values for the IC50 in assay [2] and in assay [5] were more than 10000 nM and 100 to 1000 nM, respectively.

As for `CCCn1cc(C(=O)c2cc3ccsc3n2CC)c2cnccc21` [Compound I-22], in assay [1] (cAMP agonist, HEK, 96-well), the “hCB1 EC50 (cAMP ag, nM, HEK (96-well))” value is “NS (“Not Significant,” which means less than 30% agonist activity when compared to the positive control)”. The IC50 fell in the range of 1000 to 10000 nM in assay [2] and 100 to 1000 nM in assay [5]. Also, the values for the EC50 in assay [3] and in assay [4] were 100 to 1000 nM and less than 100 nM, respectively.

Regarding `CCCn1cc(C(=O)c2cc3ccsc3n2CC)c2ccncc21` [Compound I-23], the “hCB1 EC50 (cAMP ag, nM, HEK (96-well))” value in assay [1] (cAMP agonist, HEK, 96-well) is listed as “NS (“Not Significant,” which means less than 30% agonist activity when compared to the positive control)”. Further, the IC50 in assay [2] is 1000 to 10000 nM; in assay [5] it was less than 100 nM. The EC50 is 100 to 1000 nM in assay [3] and less than 100 nM in assay [4].

Turning to `CCn1c(C(=O)c2c(C)n(CCN3CCOC3=O)c3ccccc23)cc2ccsc21` [Compound I-25], the EC50 in assay [1] (cAMP agonist, HEK, 96-well, read-out: hCB1 EC50 (cAMP ag, nM, HEK (96-well))) was 1000 to 10000 nM; in assay [3] (setting [6]), less than 100 nM; in assay [4] (setting [7]) it was less than 100 nM. Further, the IC50 in assay [2] was more than 10000 nM; in assay [5] it was less than 100 nM.

Regarding `CCCn1c(C)c(C(=O)c2cc3scnc3n2CC)c2ccccc21` [Compound I-31], the “hCB1 EC50 (cAMP ag, nM, HEK (96-well))” value in assay [1] (cAMP agonist, HEK, 96-well) is “NS (“Not Significant,” which means less than 30% agonist activity when compared to the positive control)”. The IC50 in assay [2] fell in the range of 1000 to 10000 nM; in assay [5] it was 100 to 1000 nM. Also, the results for the 50% effective concentration (EC50) in assay [3] and in assay [4] were 100 to 1000 nM and less than 100 nM, respectively.

Take `CCCn1cc(C(=O)c2cc3ccsc3n2C)c2ccccc21` [Compound I-32]: the EC50 was 100 to 1000 nM in assay [1], less than 100 nM in assay [3] and less than 100 nM in assay [4]. In addition, the concentration for half-maximal inhibition (IC50) in assay [2] is 100 to 1000 nM; in assay [5] it was less than 100 nM.

`CCCn1c(C)c(C(=O)c2cc3ccsc3n2CC)c2cccc(OC)c21` [Compound I-36]: the EC50 in assay [1] is 100 to 1000 nM; in assay [3], less than 100 nM; in assay [4], less than 100 nM. Moreover, the IC50 in assay [2] was 100 to 1000 nM; in assay [5] it was less than 100 nM.

With `CCCn1c(C(=O)c2c(C)[nH]c3ccccc23)cc2ccsc21` [Compound I-51], the “hCB1 EC50 (cAMP ag, nM, HEK (96-well))” value in assay [1] (cAMP agonist, HEK, 96-well) is given as “NS (“Not Significant,” which means less than 30% agonist activity when compared to the positive control)”. The IC50 is more than 10000 nM in assay [2] and 100 to 1000 nM in assay [5]. Moreover, the EC50 in assay [4] (setting [7]) lay within 100 to 1000 nM.

For `CCCn1c(C(=O)c2c(C)n(S(=O)(=O)CC)c3ccccc23)cc2ccsc21` [Compound I-67], the “hCB1 EC50 (cAMP ag, nM, HEK (96-well))” value in assay [1] (cAMP agonist, HEK, 96-well) is “NS (“Not Significant,” which means less than 30% agonist activity when compared to the positive control)”. The half-maximal inhibitory concentration (IC50) in assay [2] was more than 10000 nM; in assay [5] it was 100 to 1000 nM. Besides, in assay [4] (setting [7]), the EC50 was in the range of 100 to 1000 nM.
